ChEMBL document CHEMBL1201862, “PubChem BioAssay data set” (2004)
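96-well plates; 48 h exposure; 5 concentrations. Endpoints by linear interpolation between flanking doses. Not reached: highest tested concentration assigned. GI50: concentration for 50% inhibition of growth.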 Active and inactive are the calls of the source. Rule as the data show it: active = GI50 up to about 1.1 µM and inactive = higher.

Legend:
Assay in all cases: NCI tumour cell line growth inhibition, 48 h
SF-295 = system: SF-295
HOP-62 = system: HOP-62
K562 = system: K562
RPMI-8226 = system: RPMI-8226
HOP-92 = system: HOP-92
BT-549 = system: BT-549
MDA-MB-231 = system: MDA-MB-231
A498 = system: A498
SK-MEL-28 = system: SK-MEL-28
SF-268 = system: SF-268
CCRF-CEM = system: CCRF-CEM
SK-MEL-5 = system: SK-MEL-5
NCI-H522 = system: NCI-H522
OVCAR-5 = system: OVCAR-5
RXF 393 = system: RXF 393
MOLT-4 = system: MOLT-4
HT-29 = system: HT-29
UACC-257 = system: UACC-257
Malme-3M = system: Malme-3M

Measured: GI50

CN(C)Cc1cc(C(=O)/C=C/c2cccc(Cl)c2)cc(CN(C)C)c1O
inactive: SF-295 13.5 µM | HOP-62 3.65 µM | K562 2.91 µM | RPMI-8226 2.69 µM | HOP-92 4.31 µM | BT-549 9.64 µM | MDA-MB-231 2.75 µM | A498 3.22 µM | SK-MEL-28 4.16 µM | SF-268 6.62 µM | CCRF-CEM 2.07 µM | SK-MEL-5 2.41 µM | NCI-H522 5.98 µM | OVCAR-5 5.69 µM | RXF 393 7.05 µM | MOLT-4 3.43 µM | HT-29 4.18 µM | UACC-257 5.56 µM

CC(C)(C)C#CI1OC(=O)c2ccccc21
active: MOLT-4 1.02 µM
inactive: SF-295 14.3 µM | HOP-62 10 µM | K562 1.91 µM | RPMI-8226 1.81 µM | HOP-92 1.72 µM | BT-549 3.16 µM | Malme-3M 3.03 µM | MDA-MB-231 5.94 µM | A498 6.07 µM | SK-MEL-28 4.34 µM | SF-268 4.34 µM | CCRF-CEM 1.37 µM | SK-MEL-5 6.08 µM | NCI-H522 1.76 µM | OVCAR-5 7.67 µM | RXF 393 3.62 µM | HT-29 4.16 µM | UACC-257 6.05 µM

COC(=O)[C@@H](NC(=O)N(Cc1ccccc1)C[C@H](CC(C)C)NC(=O)[C@@H](NC(=O)OC(C)(C)C)C(C)C)C(C)C
inactive: SF-295 > 100 µM | HOP-62 > 100 µM | K562 > 100 µM | RPMI-8226 > 100 µM | HOP-92 > 100 µM | BT-549 > 100 µM | Malme-3M > 100 µM | MDA-MB-231 > 100 µM | A498 > 100 µM | SK-MEL-28 > 100 µM | SF-268 > 100 µM | SK-MEL-5 > 100 µM | NCI-H522 > 100 µM | OVCAR-5 > 100 µM | RXF 393 > 100 µM | MOLT-4 > 100 µM | HT-29 > 100 µM | UACC-257 > 100 µM

O=C(c1ccco1)N(C(=S)OCCOc1ccccc1)c1ccccc1
inactive: SF-295 16.2 µM | HOP-62 16.2 µM | K562 28.4 µM | RPMI-8226 19.8 µM | HOP-92 14.8 µM | BT-549 23 µM | Malme-3M 19.9 µM | MDA-MB-231 16.4 µM | A498 16 µM | SK-MEL-28 18.2 µM | SF-268 18 µM | CCRF-CEM 20.1 µM | NCI-H522 17.1 µM | OVCAR-5 19.2 µM | RXF 393 13.8 µM | MOLT-4 23.8 µM | HT-29 19.2 µM | UACC-257 17.9 µM

CC1=NN(c2nc(N)nc(CN3CCOCC3)n2)C(C)(C)C1
inactive: SF-295 > 100 µM | HOP-62 46.2 µM | K562 > 100 µM | RPMI-8226 > 100 µM | HOP-92 33.2 µM | BT-549 > 100 µM | MDA-MB-231 > 100 µM | A498 > 100 µM | SK-MEL-28 > 100 µM | SF-268 > 100 µM | CCRF-CEM 30.1 µM | SK-MEL-5 73.3 µM | NCI-H522 14 µM | OVCAR-5 > 100 µM | RXF 393 > 100 µM | MOLT-4 > 100 µM | HT-29 > 100 µM | UACC-257 > 100 µM

OCC1NC(COC2OC(CO)C(O)C(O)C2O)C(O)C(O)C1O (stereo not drawn)
inactive: SF-295 > 100 µM | K562 > 100 µM | RPMI-8226 > 100 µM | HOP-92 > 100 µM | BT-549 > 100 µM | Malme-3M > 100 µM | MDA-MB-231 > 100 µM | A498 > 100 µM | SK-MEL-28 > 100 µM | SF-268 > 100 µM | CCRF-CEM > 100 µM | SK-MEL-5 > 100 µM | NCI-H522 > 100 µM | OVCAR-5 > 100 µM | RXF 393 > 100 µM | MOLT-4 > 100 µM | HT-29 > 100 µM | UACC-257 > 100 µM

CCC(C)OC(=O)/C(Br)=C1/OC(=O)c2ccccc2-c2ccccc21 (stereo not drawn)
inactive: SF-295 35.6 µM | HOP-62 15.9 µM | K562 4.42 µM | RPMI-8226 22.3 µM | HOP-92 27.3 µM | BT-549 18.8 µM | Malme-3M 29.7 µM | MDA-MB-231 > 10 µM | A498 40.7 µM | SK-MEL-28 30.1 µM | SF-268 56.4 µM | CCRF-CEM 4.78 µM | SK-MEL-5 21.2 µM | NCI-H522 18.7 µM | OVCAR-5 80 µM | RXF 393 9.75 µM | MOLT-4 6.85 µM | HT-29 23.2 µM | UACC-257 88.7 µM
